Laboratory results from PubChem BioAssay (NCI).
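GI50: concentration for 50% inhibition of growth. TGI: concentration producing complete growth inhibition.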

Columns and labels:
Assay in all cases: NCI tumour cell line growth inhibition, 384-well format
HL-60(TB) leukemia = tested on: HL-60(TB) leukemia
UACC-62 melanoma = tested on: UACC-62 melanoma
NCI-H23 lung = tested on: NCI-H23 lung
A498 renal = tested on: A498 renal
TK-10 renal = tested on: TK-10 renal
786-0 renal = tested on: 786-0 renal
RPMI-8226 leukemia = tested on: RPMI-8226 leukemia
SK-MEL-2 melanoma = tested on: SK-MEL-2 melanoma
HCT-15 colon = tested on: HCT-15 colon
MCF7 breast = tested on: MCF7 breast
SR leukemia = tested on: SR leukemia
ACHN renal = tested on: ACHN renal
SF-295 CNS = tested on: SF-295 CNS
NCI/ADR-RES ovarian = tested on: NCI/ADR-RES ovarian
MOLT-4 leukemia = tested on: MOLT-4 leukemia
MDA-MB-468 breast = tested on: MDA-MB-468 breast
UO-31 renal = tested on: UO-31 renal

SMILES: Cc1c(-c2c(-c3ccc(F)o3)sc3ncnc(O[C@H](Cc4ccccc4OCc4ccnn4CC(F)(F)F)C(=O)O)c23)ccc(OCCN2CCN(C)CC2)c1Cl
- GI50 (HL-60(TB) leukemia): < 0.01 µM
- TGI (HL-60(TB) leukemia): < 0.01 µM
- GI50 (UACC-62 melanoma): < 0.01 µM
- TGI (UACC-62 melanoma): 0.0102 µM
- GI50 (NCI-H23 lung): 0.0113 µM
- TGI (NCI-H23 lung): 0.0318 µM
- GI50 (A498 renal): 3.34 µM
- TGI (A498 renal): 9.93 µM
- GI50 (TK-10 renal): 3.27 µM
- TGI (TK-10 renal): 8.77 µM
- GI50 (786-0 renal): 2.11 µM
- TGI (786-0 renal): 4.5 µM
- GI50 (RPMI-8226 leukemia): < 0.01 µM
- TGI (RPMI-8226 leukemia): < 0.01 µM
- GI50 (SK-MEL-2 melanoma): < 0.01 µM
- TGI (SK-MEL-2 melanoma): < 0.01 µM
- GI50 (HCT-15 colon): 10.4 µM
- TGI (HCT-15 colon): 22.2 µM
- GI50 (MCF7 breast): < 0.01 µM
- TGI (MCF7 breast): 1.18 µM
- GI50 (SR leukemia): < 0.01 µM
- TGI (SR leukemia): < 0.01 µM
- GI50 (ACHN renal): 6.94 µM
- TGI (ACHN renal): 18.8 µM
- GI50 (SF-295 CNS): 1.66 µM
- TGI (SF-295 CNS): 3.06 µM
- GI50 (NCI/ADR-RES ovarian): 27.4 µM
- TGI (NCI/ADR-RES ovarian): 95.7 µM
- GI50 (MOLT-4 leukemia): < 0.01 µM
- TGI (MOLT-4 leukemia): < 0.01 µM
- GI50 (MDA-MB-468 breast): < 0.01 µM
- TGI (MDA-MB-468 breast): < 0.01 µM
- GI50 (UO-31 renal): 15.6 µM
- TGI (UO-31 renal): 29.1 µM
